{"source": "PubChem BioAssay AID330", "about": "(DTP/NCI, 2004)", "system": "P388 leukemia ip, CD2F1 mice, survival T/C", "assay": "NCI In Vivo Anticancer Drug Screen. Data for tumor model P388 Leukemia (intraperitoneal) in CD2F1 (CDF1) mice", "conditions": "endpoint: median survival time, higher = longer survival", "outline": "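Mice carrying the transplanted tumor received test compound or vehicle. Survival was recorded in each group, and the value is the treated-group measurement divided by that of the vehicle-treated control group.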", "key": {"[1]": {"conditions": "dose: 120.0 mg/kg/injection, schedule: Q01DX005 (ip), vehicle: saline with Tween-80"}}, "note": "Several values for one entry are separate records, joined by “and”; a condition that tells them apart may be missing. Identical values can stand only once. Toxic doses and inconclusive results are not listed."}
{"molecule": "C[n+]1ccc2c([N+](=O)[O-])cccc2c1", "values": [{"measurement": "T/C", "setting": "dose: 6.25 mg/kg/injection, schedule: Q01DX005 (ip), vehicle: saline", "value": "103 % of control"}, {"measurement": "T/C", "setting": "dose: 12.5 mg/kg/injection, schedule: Q01DX005 (ip), vehicle: saline", "value": "112 % of control"}]}
{"molecule": "OC(CBr)C(O)C(O)C(O)CBr", "note": "(configuration not stated)", "values": [{"measurement": "T/C", "setting": "dose: 12.5 mg/kg/injection, schedule: Q01DX009 (ip), vehicle: Klucel (hydroxypropylcellulose) (HPC)", "value": "106 % of control"}, {"measurement": "T/C", "setting": "dose: 36.0 mg/kg/injection, schedule: Q01DX005 (ip), vehicle: Klucel (hydroxypropylcellulose) (HPC)", "value": "107 % of control and 109 % of control"}, {"measurement": "T/C", "setting": "dose: 50.0 mg/kg/injection, schedule: Q01DX009 (ip), vehicle: Klucel (hydroxypropylcellulose) (HPC)", "value": "115 % of control"}, {"measurement": "T/C", "setting": "dose: 50.0 mg/kg/injection, schedule: Q01DX009 (ip), vehicle: distilled water + Tween-80", "value": "114 % of control"}, {"measurement": "T/C", "setting": "dose: 50.0 mg/kg/injection, schedule: Q01DX009 (ip), vehicle: saline with Tween-80", "value": "107 % of control"}, {"measurement": "T/C", "setting": "dose: 50.0 mg/kg/injection, schedule: Q01DX009 (ip), vehicle: saline", "value": "96 % of control"}, {"measurement": "T/C", "setting": "dose: 50.0 mg/kg/injection, schedule: Q01DX010 (ip), vehicle: saline", "value": "109 % of control"}, {"measurement": "T/C", "setting": "dose: 53.0 mg/kg/injection, schedule: Q01DX005 (ip), vehicle: Klucel (hydroxypropylcellulose) (HPC)", "value": "120 % of control"}, {"measurement": "T/C", "setting": "dose: 80.0 mg/kg/injection, schedule: Q01DX005 (ip), vehicle: Klucel (hydroxypropylcellulose) (HPC)", "value": "173 % of control"}, {"measurement": "T/C", "setting": "dose: 100.0 mg/kg/injection, schedule: Q01DX009 (ip), vehicle: distilled water + Tween-80", "value": "124 % of control"}, {"measurement": "T/C", "setting": "dose: 100.0 mg/kg/injection, schedule: Q01DX009 (ip), vehicle: saline with Tween-80", "value": "114 % of control"}, {"measurement": "T/C", "setting": "dose: 100.0 mg/kg/injection, schedule: Q01DX009 (ip), vehicle: saline", "value": "123 % of control"}, {"measurement": "T/C", "setting": "dose: 100.0 mg/kg/injection, schedule: Q01DX010 (ip), vehicle: saline", "value": "109 % of control"}, {"measurement": "T/C", "setting": "dose: 120.0 mg/kg/injection, schedule: Q01DX005 (ip), vehicle: Klucel (hydroxypropylcellulose) (HPC)", "value": "170 % of control and 207 % of control"}, {"measurement": "T/C", "setting": "dose: 180.0 mg/kg/injection, schedule: Q01DX005 (ip), vehicle: Klucel (hydroxypropylcellulose) (HPC)", "value": "163 % of control and 181 % of control"}, {"measurement": "T/C", "setting": "dose: 200.0 mg/kg/injection, schedule: Q01DX009 (ip), vehicle: Klucel (hydroxypropylcellulose) (HPC)", "value": "107 % of control"}, {"measurement": "T/C", "setting": "dose: 200.0 mg/kg/injection, schedule: Q01DX009 (ip), vehicle: distilled water + Tween-80", "value": "122 % of control"}, {"measurement": "T/C", "setting": "dose: 200.0 mg/kg/injection, schedule: Q01DX009 (ip), vehicle: saline with Tween-80", "value": "113 % of control"}, {"measurement": "T/C", "setting": "dose: 200.0 mg/kg/injection, schedule: Q01DX010 (ip), vehicle: saline", "value": "109 % of control"}, {"measurement": "T/C", "setting": "dose: 200.0 mg/kg/injection, schedule: Q04DX003 (ip), vehicle: Klucel (hydroxypropylcellulose) (HPC)", "value": "190 % of control"}, {"measurement": "T/C", "setting": "dose: 300.0 mg/kg/injection, schedule: Q04DX003 (ip), vehicle: Klucel (hydroxypropylcellulose) (HPC)", "value": "200 % of control"}, {"measurement": "T/C", "setting": "dose: 400.0 mg/kg/injection, schedule: Q01DX009 (ip), vehicle: Klucel (hydroxypropylcellulose) (HPC)", "value": "93 % of control"}, {"measurement": "T/C", "setting": "dose: 400.0 mg/kg/injection, schedule: Q01DX009 (ip), vehicle: distilled water + Tween-80", "value": "86 % of control"}, {"measurement": "T/C", "setting": "dose: 400.0 mg/kg/injection, schedule: Q01DX009 (ip), vehicle: saline with Tween-80", "value": "117 % of control"}, {"measurement": "T/C", "setting": "dose: 800.0 mg/kg/injection, schedule: Q01DX009 (ip), vehicle: saline with Tween-80", "value": "120 % of control"}]}
{"molecule": "N#Cc1c(N)nc2c(c(-c3ccc(Cl)cc3)nn2-c2ccccc2)c1C#N", "values": [{"measurement": "T/C", "setting": "dose: 7.5 mg/kg/injection, schedule: Q01DX005 (ip), vehicle: saline with Tween-80", "value": "97 % of control"}, {"measurement": "T/C", "setting": "dose: 15.0 mg/kg/injection, schedule: Q01DX005 (ip), vehicle: saline with Tween-80", "value": "86 % of control and 96 % of control"}, {"measurement": "T/C", "setting": "dose: 30.0 mg/kg/injection, schedule: Q01DX005 (ip), vehicle: saline with Tween-80", "value": "89 % of control and 90 % of control"}, {"measurement": "T/C", "setting": "[1]", "value": "86 % of control and 91 % of control"}, {"measurement": "T/C", "setting": "dose: 240.0 mg/kg/injection, schedule: Q01DX005 (ip), vehicle: saline with Tween-80", "value": "93 % of control"}]}
{"molecule": "CCCCCCCCCC1=C(C#N)C(=O)OCCN1C", "values": [{"measurement": "T/C", "setting": "dose: 60.0 mg/kg/injection, schedule: Q01DX005 (ip), vehicle: saline with Tween-80", "value": "92 % of control"}, {"measurement": "T/C", "setting": "[1]", "value": "93 % of control"}]}
{"molecule": "CN(C)C(=Nc1ccccc1)OC1=C/C(=C2/C=C(OC(=Nc3ccccc3)N(C)C)N=C2OC(=Nc2ccccc2)N(C)C)C(OC(=Nc2ccccc2)N(C)C)=N1", "values": [{"measurement": "T/C", "setting": "dose: 100.0 mg/kg/injection, schedule: Q01DX001 (ip), vehicle: Klucel (hydroxypropylcellulose) (HPC)", "value": "106 % of control"}, {"measurement": "T/C", "setting": "dose: 200.0 mg/kg/injection, schedule: Q01DX001 (ip), vehicle: Klucel (hydroxypropylcellulose) (HPC)", "value": "106 % of control"}, {"measurement": "T/C", "setting": "dose: 400.0 mg/kg/injection, schedule: Q01DX001 (ip), vehicle: Klucel (hydroxypropylcellulose) (HPC)", "value": "104 % of control"}]}
